The source of these data is patent US20030190692A1, “Method for measuring the activity of the blood clotting factor XIIIA” (priority 2000, published 2003).

Assay [1] deals with FXIIIa. The conditions noted are these: animal models; Leidy et al. 1990; cited from earlier work.
Assay [2] concerns the target FXIIIa (Homo sapiens, UniProt P00488). In words: biochemical.

Each structure is given as a SMILES string.

FXIIIa (Homo sapiens, UniProt P00488), sequence (P00488 39-732 limits assumed): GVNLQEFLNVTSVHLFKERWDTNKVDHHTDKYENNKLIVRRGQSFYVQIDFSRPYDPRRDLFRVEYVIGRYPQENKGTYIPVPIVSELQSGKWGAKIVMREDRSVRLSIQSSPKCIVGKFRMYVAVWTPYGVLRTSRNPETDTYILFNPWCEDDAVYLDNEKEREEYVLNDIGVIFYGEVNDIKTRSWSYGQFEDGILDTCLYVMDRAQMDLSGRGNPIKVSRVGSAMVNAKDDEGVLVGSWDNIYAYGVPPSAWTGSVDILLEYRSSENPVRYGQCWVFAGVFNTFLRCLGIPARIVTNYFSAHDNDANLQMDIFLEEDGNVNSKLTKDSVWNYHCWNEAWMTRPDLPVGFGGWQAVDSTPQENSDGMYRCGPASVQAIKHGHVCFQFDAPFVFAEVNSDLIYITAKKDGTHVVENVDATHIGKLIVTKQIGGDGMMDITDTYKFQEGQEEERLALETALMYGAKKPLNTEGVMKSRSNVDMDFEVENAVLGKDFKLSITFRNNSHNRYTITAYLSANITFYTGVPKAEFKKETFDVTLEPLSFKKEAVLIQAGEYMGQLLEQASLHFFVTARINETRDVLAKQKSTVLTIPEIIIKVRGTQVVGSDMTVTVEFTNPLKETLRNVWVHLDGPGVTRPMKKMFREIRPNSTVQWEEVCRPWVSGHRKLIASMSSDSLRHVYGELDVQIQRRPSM

Consider `CC(=O)CSc1n[n+]2c(C)csc2s1.[O-][Cl+3]([O-])([O-])[O-]` [L722151], for which the “Effect on thrombolysis by a plasminogen activator” value in the assay with FXIIIa [1] is “improve the thrombolysis”.

As for `O=C(O)CI` [iodoacetic acid], at FXIIIa [2], the IC50 (usually the concentration needed to halve the response being measured) came out at 147 µM.
